Common to all, as to test: NCI-60 cell line screen, 48 h
Assay [1] deals with ACHN.
Assay [2] relates to COLO 205.
Assay [3] has as its system KM12.
The test system of assay [4] is MDA-MB-231.
The test system of assay [5] is MDA-MB-435.
For assay [6], the system named is Malme-3M.
The subject of assay [7] is NCI-H522.
In assay [8] the test system is OVCAR-5.
For assay [9], the system named is PC-3.
The subject of assay [10] is RPMI-8226.
Assay [11] deals with SF-268.
The subject of assay [12] is SF-539.
In assay [13] the test system is SK-MEL-28.
The subject of assay [14] is SK-MEL-2.
The test system of assay [15] is SNB-19.
The test system of assay [16] is SR.
For assay [17], the system named is SW-620.
Assay [18] deals with TK-10.
In assay [19] the test system is UACC-257.
Assay [20] deals with UACC-62.

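All cell lines were grown in 96-well plates and treated with compound for 48 hours. GI50 is the concentration that inhibits growth by half.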 Calls of active or inactive are those of the source. No stated cut-off is given here; in the data, active = GI50 up to about 1.1 µM and inactive = higher.

Here are results for ten compounds from ChEMBL document CHEMBL1201862, “PubChem BioAssay data set” (2004).

Turning to `Cc1ccc(S(=O)(=O)c2ccsc2NC(=O)c2ccccc2)cc1`, the GI50 in assay [1] was > 42.6 µM (inactive); in assay [2], > 100 µM (inactive); in assay [3], > 100 µM (inactive); in assay [4], 14.8 µM (inactive); in assay [5] it was 3.11 µM (inactive); in assay [6], > 100 µM (inactive). Further, the GI50 is > 100 µM (inactive) in assay [7]; > 100 µM (inactive) in assay [8]; > 81.5 µM (inactive) in assay [9]; > 100 µM (inactive) in assay [10]; 31.3 µM (inactive) in [11]; 15.4 µM (inactive) in [12]. Also, the GI50 in [13] is > 100 µM (inactive); in assay [14], > 57 µM (inactive); in assay [15] it was > 64.3 µM (inactive); in assay [16], 4.79 µM (inactive); in [17], > 100 µM (inactive); in assay [18], 36.3 µM (inactive). The GI50 in assay [19] and in assay [20] was > 100 µM (inactive) in each case.
For the compound `CN(CCCNC(=O)c1nn(-c2ccccc2)c2c1Cc1ccccc1-2)CCCNC(=O)c1nn(-c2ccccc2)c2c1Cc1ccccc1-2`, the GI50 is 1.73 µM (inactive) in [1]; 1.45 µM (inactive) in assay [2]; 1.9 µM (inactive) in assay [3]; 1.76 µM (inactive) in assay [4]; 1.23 µM (inactive) in [5]; 1.5 µM (inactive) in [6]. The GI50 in [7] was 1.35 µM (inactive); in [8] it was 1.75 µM (inactive); in [9], 1.69 µM (inactive); in [10], 1.72 µM (inactive); in assay [11], 1.63 µM (inactive); in assay [12], 1.59 µM (inactive). Moreover, the GI50 in [13] was 1.59 µM (inactive); in assay [14], 1.69 µM (inactive); in assay [15], 1.61 µM (inactive); in assay [16], 0.191 µM (active); in assay [17], 1.31 µM (inactive); in assay [18], 1.74 µM (inactive). The GI50 is 1.72 µM (inactive) in assay [19] and 1.77 µM (inactive) in assay [20].
Turning to `Cn1c2ccc([N+](=O)[O-])cc2c(=O)c2c(O)cc(O)cc21`, the GI50 in assay [1] was 33.1 µM (inactive); in assay [2], > 100 µM (inactive); in assay [3], 61.1 µM (inactive); in [4], 57.3 µM (inactive); in [5] it was > 100 µM (inactive); in [6] it was 18.6 µM (inactive). Besides, the GI50 was 7.74 µM (inactive) in [7]; > 100 µM (inactive) in assay [8]; > 100 µM (inactive) in [9]; > 100 µM (inactive) in assay [10]; 19.7 µM (inactive) in assay [11]; 24.3 µM (inactive) in assay [12]. In addition, the GI50 is > 100 µM (inactive) in [13]; > 10 µM (inactive) in assay [14]; 18.1 µM (inactive) in assay [15]; 19.2 µM (inactive) in assay [16]; 68.2 µM (inactive) in [17]; 66.2 µM (inactive) in assay [18]. Besides, the GI50 is > 100 µM (inactive) in assay [19] and 54.5 µM (inactive) in assay [20].
In the case of `COc1ccc(C(=O)Nc2ccc3oc(-c4ccccc4)nc3c2)cc1`, the GI50 in [1], in [2], in assay [3], in [4], in assay [5] and in assay [6] was > 100 µM (inactive) each time. Also, the GI50 in assay [7] was > 100 µM (inactive); in assay [8], > 100 µM (inactive); in assay [9], > 100 µM (inactive); in assay [10], > 100 µM (inactive); in assay [11], > 100 µM (inactive); in assay [12], 32.5 µM (inactive). Besides, the GI50 in assay [13] is > 100 µM (inactive); in assay [14], > 100 µM (inactive); in [15] it was 50.5 µM (inactive); in assay [16], > 100 µM (inactive); in [17] it was > 100 µM (inactive); in assay [18] it was > 100 µM (inactive). The GI50 in assay [19] and in assay [20] was > 100 µM (inactive) each time.
In the case of `CC(C)(C)c1cc(OCc2nnc(S)n2N)c(Cl)cc1OCc1nnc(S)n1N`, the GI50 is 63.7 µM (inactive) in assay [1]; 42.2 µM (inactive) in assay [2]; 40.9 µM (inactive) in [3]; 27.5 µM (inactive) in [4]; 39.5 µM (inactive) in assay [5]; 38.1 µM (inactive) in [6]. Further, the GI50 in assay [7] is 35.2 µM (inactive); in assay [8], 63.7 µM (inactive); in assay [9] it was 28.2 µM (inactive); in assay [10], 29.5 µM (inactive); in assay [11], 45.5 µM (inactive); in assay [12], 48.3 µM (inactive). In addition, the GI50 in [13] was 45.9 µM (inactive); in assay [14], 18.4 µM (inactive); in [15], 42.1 µM (inactive); in assay [16], 22.3 µM (inactive); in [17], 43.2 µM (inactive); in assay [18], 52.2 µM (inactive). Moreover, the GI50 was 33 µM (inactive) in assay [19] and 20.7 µM (inactive) in [20].
As for `CCC(C(=O)c1cccs1)C(O)(C(F)(F)F)C(F)(F)F` (stereo not given), the GI50 in assay [1], in [2], in [3], in [4], in [5] and in assay [6] was > 100 µM (inactive) in each case. The GI50 in assay [7], in assay [8], in assay [9], in assay [10], in assay [11] and in [12] was > 100 µM (inactive) each time. The GI50 in assay [13], in assay [14], in assay [15], in assay [16], in assay [17] and in [18] was > 100 µM (inactive) throughout. In addition, the GI50 in [19] and in [20] was > 100 µM (inactive) throughout.
`C=C1C(=O)OC2CC(C)C3(O)CCC(=O)C3(C)CC12` (stereo not given): the GI50 in [1] was 17.5 µM (inactive); in assay [2], 40 µM (inactive); in assay [3], 20.7 µM (inactive); in assay [4] it was 26 µM (inactive); in assay [5], 39.7 µM (inactive); in assay [6], 19.5 µM (inactive). The GI50 is 14.3 µM (inactive) in assay [7]; 23.6 µM (inactive) in [8]; 49 µM (inactive) in assay [9]; 14.8 µM (inactive) in assay [10]; 18.5 µM (inactive) in assay [11]; 16.1 µM (inactive) in [12]. For the same compound, the GI50 in assay [13] was 54.8 µM (inactive); in assay [14], 22.2 µM (inactive); in assay [15] it was 18.7 µM (inactive); in [16] it was 23.2 µM (inactive); in [17], 42.1 µM (inactive); in assay [18], 26.7 µM (inactive). Also, the GI50 in [19] is 43.7 µM (inactive); in assay [20], 44.3 µM (inactive).
Turning to `CCCCCCc1cc(C=O)sc1-c1ccc(-c2sc(-c3ccc(-c4ccc(-c5cc(CCCCCC)c(-c6ccc(-c7sc(C=O)cc7CCCCCC)s6)s5)s4)s3)cc2CCCCCC)s1`, the GI50 in [1], in assay [2], in assay [3], in assay [4], in [5] and in assay [6] was > 100 µM (inactive) each time. Moreover, the GI50 is 91.4 µM (inactive) in assay [7]; > 100 µM (inactive) in assay [8]; > 100 µM (inactive) in assay [9]; > 100 µM (inactive) in assay [10]; 85.9 µM (inactive) in assay [11]; > 100 µM (inactive) in assay [12]. In addition, the GI50 in assay [13], in assay [14], in [15], in assay [16], in assay [17] and in [18] was > 100 µM (inactive) throughout. For the same compound, the GI50 in assay [19] and in assay [20] was > 100 µM (inactive) throughout.
`COC1C(OC(=O)/C=C/C=C/C=C/C=C/C(=O)O)CCC2(CO2)C1C1(C)OC1CC=C(C)C` (stereo not given): the GI50 in assay [1] is 18.5 µM (inactive); in assay [2], 12.4 µM (inactive); in assay [3], 12.4 µM (inactive); in assay [4], 21.3 µM (inactive); in assay [5] it was 14.6 µM (inactive); in [6], 26.2 µM (inactive). In addition, the GI50 in [7] was 23.2 µM (inactive); in [8], > 78.2 µM (inactive); in assay [9], 15.2 µM (inactive); in [10], 20.1 µM (inactive); in [11], 34.5 µM (inactive); in [12] it was 42.3 µM (inactive). Also, the GI50 in assay [13] was 18.2 µM (inactive); in assay [14] it was 5.01 µM (inactive); in assay [15], > 56.1 µM (inactive); in assay [16], 20.6 µM (inactive); in [17] it was 21 µM (inactive); in assay [18] it was 57.9 µM (inactive). The GI50 in [19] is 34 µM (inactive); in [20], 16.1 µM (inactive).
Take `CC(=O)OC1(C)CC(C)C(=O)C(C(O)CC2CC(=O)NC(=O)C2)C1` (stereo not given): the GI50 is 0.00743 µM (active) in assay [1]; 0.0108 µM (active) in assay [2]; 0.00746 µM (active) in [3]; 0.0137 µM (active) in [4]; 0.0148 µM (active) in assay [5]; 0.0186 µM (active) in assay [6]. For the same compound, the GI50 is 0.00357 µM (active) in assay [7]; 0.0206 µM (active) in assay [8]; 0.0199 µM (active) in assay [9]; 0.0118 µM (active) in assay [10]; 0.0329 µM (active) in [11]; 0.0145 µM (active) in assay [12]. For the same compound, the GI50 in assay [13] was 0.00776 µM (active); in [14], 0.00752 µM (active); in assay [15], 0.0141 µM (active); in [16], 0.00185 µM (active); in assay [17], 0.015 µM (active); in assay [18], 0.0859 µM (active). Besides, the GI50 in assay [19] was 0.0262 µM (active); in [20], 0.082 µM (active).
